Experimental findings from patent publication EP0646375A1, “Method of regulating blood amino acid levels” (CLINTEC NUTRITION COMPANY, priority 1993, dated 1995) are described below.

One data set is described as follows: in vivo. The settings on record: male, Sprague Dawley, rat, iv.
For data set [1] the following is noted: rat, in vivo.
Method: (§1) Experiments were performed on mature male Sprague Dawley rats (see Table II for weights). Prior to the experiments the animals were maintained on standard rat chow (Doust and Rabbidge, Sydney, Australia) and tap water. The animals were starved for 15-18h and then anaesthetized by peritoneal injection with Nembutal (Boehringer Ingelheim, Sydney, Australia) (4mg/kg Body Weight (B.W.) pentobarbitone). The internal jugular veins were exposed by blunt dissection and a small gauge silicone catheter (Dow Corning, Sydney, Australia) was introduced and secured with 5-0 silk sutures. Both internal jugular veins were catheterized; the left for dipeptide injection and the right for blood sampling. After insertion, the catheters were kept patent and with occasional flushes (0.2-0.5ml) of heparinized (10U/ml) isotonic saline.
(§2) All dipeptides were proven by to be >98% pure. […] Dipeptides were dissolved in 80mM sodium phosphate buffer, Ph 7.0, made isotonic with sodium chloride and filtered through a 0.2µm membrane filter (Millipore, Sydney, Australia).
(§3) Following an initial baseline blood sample (0.15-0.2ml) a bolus injection of dipeptide (0.2ml, see Table 1 for doses) was administered into the left catheter. Rapid blood samples were taken in the first 5 minutes and then at 10, 20 and 30 minutes following injection. Heparinized (10U/ml) isotonic saline (0.5ml) was injected into the sample catheter after the 5, 10 and 20 minute blood samples to maintain patency of the catheter. At each time point two blood samples were taken: the first, 0.1ml in volume, to remove traces of heparinized saline and blood from the catheter and the second, 0.15-ml in volume, for dipeptide and amino acid determination. One hour after injection of the dipeptide the bladder was exposed and urine was collected with a small gauge hypodermic needle.
(§4) Immediately following collection the blood (0.15-ml) and urine (0.5ml) samples were transferred to pre-weighed stoppered tubes containing 0.6ml of ice-cold 4% (w/v) sulfosalicylic acid. The samples were shaken vigorously and placed on ice for 10 minutes to allow complete deproteinization. The sample tubes were weighed and then centrifuged (bench-top, 1200 x g) for 10 minutes at 2-4°C. The resulting supernatant was filtered (0.45µm membrane, Millipore, Sydney, Australia) and stored at - 80°C. The volume of blood added to the tubes was determined by weight assuming a blood density of 1.06g/ml.
(§5) The concentration of dipeptides and amino acids in the deproteinized samples was determined using a HPLC modification of the standard ion-exchange chromatography, post-column ninhydrin method for physiological amino acids. The column temperature was modified for each dipeptide to produce complete separation of dipeptides and amino acids. The column temperatures were: 70°C for AlaGln, GlyTyr and GlnGly, 60°C for GlyGln, 55°C for GlnAla, and 45°C for AlaTyr.
(§6) Kinetic parameters were calculated for the disappearance of dipeptides, and the amino acids released from the dipeptides using standard equations. In calculating the amino acid clearance the dose was assumed to be that administered as the dipeptide. Baseline amino acid concentrations were subtracted from the amino acid concentrations measured following dipeptide injection to obtain the AUC for amino acids released from the dipeptides. AUC for dipeptides and the constituent amino acids was calculated using the trapezoidal method with extrapolation to infinite time.
(§7) Blood clearance was calculated by dividing the dose of dipeptide by the area under the blood concentration-versus-time curve (AUC). Elimination half-lifes (t½) were estimated from the relationship: t½ = ln2/β, where β is the rate constant for the terminal elimination phase. β was obtained by fitting the concentration-versus-time-curves to a two-compartment model by non-linear least squares regression.

Structures are written as SMILES. Residues, ends and D or L forms follow the SMILES beside them.

Method for in vivo: as §1, §2, §3, §4, §5, §6, §7

On to `C[C@H](N)C(=O)N[C@@H](CCC(N)=O)C(=O)O` [ALA-GLN] (H-Ala-Gln-OH), for which, in the data set “in vivo”, the clearance – broadly, a measure of how efficiently the substance is removed, as volume per time – was 122 mL/min/kg.
The same measure, in the same setting: the same measure for `C[C@H](N)C(=O)N[C@@H](Cc1ccc(O)cc1)C(=O)O` [ALA-TYR] (H-Ala-Tyr-OH): 155 mL/min/kg.
As to `C[C@H](NC(=O)[C@@H](N)CCC(N)=O)C(=O)O` [GLN-ALA] (H-Gln-Ala-OH), in data set [1], the “mean Vβ of the dipeptide” value was 60 to 70 mL/kg; the “mean clearance of glutamine, times greater than glutamine from GlnGly or AlaGln” value worked out at 4 times; the “mean t½ of glutamine, times shorter than glutamine from GlnGly or AlaGln” value turned out to be 3 times. Also, the “CLEARANCE OF: Dipeptide” value in data set [1] (iv) was found to be 278 mL/min/kg.
Take `NC(=O)CC[C@H](N)C(=O)NCC(=O)O` [GLN-GLY] (H-Gln-Gly-OH): in the data set “in vivo”, the clearance stood at 151 mL/min/kg.
As for `NCC(=O)N[C@@H](CCC(N)=O)C(=O)O` [GLY-GLN] (H-Gly-Gln-OH), in data set [1], the “mean Vβ of the dipeptide” value lay in the range of 60 to 70 mL/kg. The same molecule gave a clearance in “in vivo” of 43 mL/min/kg.
For `NCC(=O)N[C@@H](Cc1ccc(O)cc1)C(=O)O` [GLY-TYR] (H-Gly-Tyr-OH), in that order: 60 to 70 mL/kg and 101 mL/min/kg.
The matching figures for `C[C@H](NC(=O)[C@@H](N)Cc1ccc(O)cc1)C(=O)O` [TYR-ALA]: 60 to 70 mL/kg and 187 mL/min/kg.
